Source: patent US8198273B2, “Compounds and methods for kinase modulation, and indications therefor” (Plexxikon Inc., priority 2009, dated 2012)

Assays:
c-Raf-1 = c-Raf-1 (Homo sapiens, UniProt P04049); assay: c-Raf-1 biochemical kinase inhibition (AlphaScreen, biotin-MEK1 substrate); conditions: 100 μM ATP
How it was run: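 Eight-point compound series (made from a 0.1 mM DMSO stock) tested against each Raf enzyme with biotin-MEK1 substrate and 100 μM final ATP.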

[1] = system: SW620 colon adenocarcinoma cells (wild-type B-RAF); assay: SW620 cell growth inhibition (ATPlite); type: cell-based; conditions: Homo sapiens, SW-620, 72 h; SW620, 3 days incubation
How it was run: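 ATPlite luminescence, taken as a cell-number measure, gave IC50 values after a 3-day 37° C, 5% CO2 incubation. Compounds were tested as 8-point threefold titrations, highest final concentration 10 μM, added to cells seeded the day before.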

CYP3A4(BQ) = CYP3A4(BQ) (Homo sapiens, UniProt P08684); assay: CYP3A4(BQ) inhibition (fluorescent substrate); type: in vitro ADME; conditions: read-out: Cyp IC50 3A4(BQ)
CYP3A4(BQ), sequence (P08684 whole entry): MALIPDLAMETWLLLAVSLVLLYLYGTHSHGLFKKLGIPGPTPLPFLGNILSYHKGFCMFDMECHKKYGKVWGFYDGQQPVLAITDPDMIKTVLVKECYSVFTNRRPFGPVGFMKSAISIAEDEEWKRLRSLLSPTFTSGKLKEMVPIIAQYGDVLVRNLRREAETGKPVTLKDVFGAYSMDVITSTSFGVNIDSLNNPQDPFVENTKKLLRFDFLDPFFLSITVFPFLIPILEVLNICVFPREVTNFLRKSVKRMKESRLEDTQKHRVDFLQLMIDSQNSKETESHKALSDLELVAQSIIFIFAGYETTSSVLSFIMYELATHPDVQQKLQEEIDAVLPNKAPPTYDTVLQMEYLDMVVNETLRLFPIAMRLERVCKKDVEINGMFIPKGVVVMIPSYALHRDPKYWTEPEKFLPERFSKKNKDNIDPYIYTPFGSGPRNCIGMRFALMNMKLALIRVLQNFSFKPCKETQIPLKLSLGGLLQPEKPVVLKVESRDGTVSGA
How it was run: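 Compound, from a 100 mM DMSO stock and diluted 1:1 over 10 points in co-factor mix, was incubated at 37° C with enzyme and a known substrate. Decrease in fluorescent product against concentration gave the IC50.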

c-Raf-1, sequence (P04049 whole entry): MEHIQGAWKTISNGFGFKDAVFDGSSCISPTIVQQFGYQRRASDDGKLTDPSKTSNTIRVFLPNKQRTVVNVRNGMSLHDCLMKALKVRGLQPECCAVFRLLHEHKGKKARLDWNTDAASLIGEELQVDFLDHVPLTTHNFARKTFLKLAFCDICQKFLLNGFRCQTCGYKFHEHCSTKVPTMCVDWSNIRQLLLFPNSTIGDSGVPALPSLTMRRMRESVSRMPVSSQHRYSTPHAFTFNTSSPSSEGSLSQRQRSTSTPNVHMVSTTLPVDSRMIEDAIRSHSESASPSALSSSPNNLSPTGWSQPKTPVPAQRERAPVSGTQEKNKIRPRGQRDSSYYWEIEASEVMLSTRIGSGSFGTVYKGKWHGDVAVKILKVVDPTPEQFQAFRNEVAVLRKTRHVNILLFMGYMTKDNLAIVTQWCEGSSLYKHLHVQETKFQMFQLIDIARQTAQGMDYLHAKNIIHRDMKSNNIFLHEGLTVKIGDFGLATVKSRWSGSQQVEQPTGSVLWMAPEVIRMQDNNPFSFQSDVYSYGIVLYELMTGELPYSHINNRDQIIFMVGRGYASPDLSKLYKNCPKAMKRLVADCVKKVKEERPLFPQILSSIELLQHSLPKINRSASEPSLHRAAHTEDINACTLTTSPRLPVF

IC50 (c-Raf-1) | IC50 [1] | IC50 (CYP3A4(BQ)) | Structure (SMILES)
< 0.01 µM | > 10 µM | > 10 µM | N#Cc1cnc2[nH]cc(C(=O)c3cccc(NS(=O)(=O)c4cccc(F)c4)c3F)c2c1 [P-2053, N-[3-(5-Cyano-1H-pyrrolo[2,3-b]pyridine-3-carbonyl)-2-fluoro-phenyl]-3-fluoro-benzenesulfonamide]
< 0.01 µM | < 10 µM | 5 to 10 µM | CCCS(=O)(=O)Nc1ccc(F)c(C(=O)c2c[nH]c3ncc(-c4ccc(S(=O)(=O)NC)cc4)cc23)c1F [P-2167, 4-{3-[2,6-Difluoro-3-(propane-1-sulfonylamino)-benzoyl]-1H-pyrrolo[2,3-b]pyridin-5-yl}-N-methyl-benzenesulfonamide]
< 0.01 µM | > 10 µM | > 10 µM | CCCS(=O)(=O)Nc1ccc(F)c(C(=O)c2c[nH]c3ncc(-c4ccc(F)nc4)cc23)c1F [P-2155, Propane-1-sulfonic acid {2,4-difluoro-3-[5-(6-fluoro-pyridin-3-yl)-1H-pyrrolo[2,3-b]pyridine-3-carbonyl]-phenyl}-amide]
< 0.01 µM | > 10 µM | > 10 µM | COc1ncc(-c2cnc3[nH]cc(C(=O)c4c(F)ccc(NS(=O)(=O)c5ccccc5F)c4F)c3c2)cn1 [P-2041, N-{2,4-Difluoro-3-[5-(2-methoxy-pyrimidin-5-yl)-1H-pyrrolo[2,3-b]pyridine-3-carbonyl]-phenyl}-2-fluoro-benzenesulfonamide]
< 0.01 µM | > 10 µM | > 10 µM | N#Cc1ccnc2[nH]cc(C(=O)c3c(F)ccc(NS(=O)(=O)c4cc(F)ccc4F)c3F)c12 [P-2036, N-[3-(4-Cyano-1H-pyrrolo[2,3-b]pyridine-3-carbonyl)-2,4-difluoro-phenyl]-2,5-difluoro-benzenesulfonamide]
< 0.01 µM | > 10 µM | > 10 µM | N#Cc1ccnc2[nH]cc(C(=O)c3c(F)ccc(NS(=O)(=O)c4c(F)cccc4F)c3F)c12 [P-2037, N-[3-(4-Cyano-1H-pyrrolo[2,3-b]pyridine-3-carbonyl)-2,4-difluoro-phenyl]-2,6-difluoro-benzenesulfonamide]
< 0.1 µM | < 5 µM | > 10 µM | CCCS(=O)(=O)Nc1ccc(F)c(C(=O)c2c[nH]c3ncc(-c4ccc(N5CCCC5)nc4)cc23)c1F [P-2231, Propane-1-sulfonic acid {2,4-difluoro-3-[5-(6-pyrrolidin-1-yl-pyridin-3-yl)-1H-pyrrolo[2,3-b]pyridine-3-carbonyl]-phenyl}-amide]
< 0.01 µM | > 10 µM | > 10 µM | COc1ncc(-c2cnc3[nH]cc(C(=O)c4c(F)ccc(NS(=O)(=O)c5cc(F)ccc5F)c4F)c3c2)cn1 [P-2042, N-{2,4-Difluoro-3-[5-(2-methoxy-pyrimidin-5-yl)-1H-pyrrolo[2,3-b]pyridine-3-carbonyl]-phenyl}-2,5-difluoro-benzenesulfonamide]
< 0.01 µM | > 10 µM | > 10 µM | N#Cc1cnc2[nH]cc(C(=O)c3cccc(NS(=O)(=O)c4cc(F)ccc4F)c3F)c2c1 [P-2052, N-[3-(5-Cyano-1H-pyrrolo[2,3-b]pyridine-3-carbonyl)-2-fluoro-phenyl]-2,5-difluoro-benzenesulfonamide]
< 0.01 µM | > 10 µM | > 10 µM | CCCS(=O)(=O)Nc1ccc(F)c(C(=O)c2c[nH]c3ncc(-c4ccc(NC(C)=O)nc4)cc23)c1F [P-2193, N-(5-{3-[2,6-Difluoro-3-(propane-1-sulfonylamino)-benzoyl]-1H-pyrrolo[2,3-b]pyridin-5-yl}-pyridin-2-yl)-acetamide]
< 0.1 µM | > 10 µM | > 10 µM | N#Cc1cnc2[nH]cc(C(=O)c3cccc(NS(=O)(=O)c4c(F)cccc4F)c3F)c2c1 [P-2054, N-[3-(5-Cyano-1H-pyrrolo[2,3-b]pyridine-3-carbonyl)-2-fluoro-phenyl]-2,6-difluoro-benzenesulfonamide]
< 0.01 µM | > 10 µM | < 5 µM | N#Cc1cnc2[nH]cc(C(=O)c3c(F)ccc(NS(=O)(=O)c4cccnc4)c3F)c2c1 [P-2072, Pyridine-3-sulfonic acid [3-(5-cyano-1H-pyrrolo[2,3-b]pyridine-3-carbonyl)-2,4-difluoro-phenyl]-amide]
< 0.01 µM | > 10 µM | > 10 µM | N#Cc1cnc2[nH]cc(C(=O)c3c(F)ccc(NS(=O)(=O)c4c(F)cccc4F)c3F)c2c1 [P-2029, N-[3-(5-Cyano-1H-pyrrolo[2,3-b]pyridine-3-carbonyl)-2,4-difluoro-phenyl]-2,6-difluoro-benzenesulfonamide]
< 0.01 µM | > 10 µM | > 10 µM | CCCc1ccc(-c2cnc3[nH]cc(C(=O)c4c(F)ccc(NS(=O)(=O)CCC)c4F)c3c2)cn1 [P-2224, Propane-1-sulfonic acid {2,4-difluoro-3-[5-(6-propyl-pyridin-3-yl)-1H-pyrrolo[2,3-b]pyridine-3-carbonyl]-phenyl}-amide]
< 0.01 µM | > 10 µM | > 10 µM | COc1ncc(-c2cnc3[nH]cc(C(=O)c4c(F)ccc(NS(=O)(=O)c5cccc(F)c5)c4F)c3c2)cn1 [P-2045, N-{2,4-Difluoro-3-[5-(2-methoxy-pyrimidin-5-yl)-1H-pyrrolo[2,3-b]pyridine-3-carbonyl]-phenyl}-3-fluoro-benzenesulfonamide]
< 0.01 µM | < 20 µM | > 10 µM | O=C(c1c(F)ccc(NS(=O)(=O)c2cc(F)ccc2F)c1F)c1c[nH]c2ncc(Cl)cc12 [P-2002, N-[3-(5-Chloro-1H-pyrrolo[2,3-b]pyridine-3-carbonyl)-2,4-difluoro-phenyl]-2,5-difluoro-benzenesulfonamide]
< 0.01 µM | > 10 µM | > 10 µM | N#Cc1ccnc2[nH]cc(C(=O)c3c(F)ccc(NS(=O)(=O)c4cccc(F)c4)c3F)c12 [P-2039, N-[3-(4-Cyano-1H-pyrrolo[2,3-b]pyridine-3-carbonyl)-2,4-difluoro-phenyl]-3-fluoro-benzenesulfonamide]
< 0.01 µM | > 10 µM | > 10 µM | CCCS(=O)(=O)Nc1ccc(F)c(C(=O)c2c[nH]c3ncc(-c4cccc(S(C)(=O)=O)c4)cc23)c1F [P-2228, Propane-1-sulfonic acid {2,4-difluoro-3-[5-(3-methanesulfonyl-phenyl)-1H-pyrrolo[2,3-b]pyridine-3-carbonyl]-phenyl}-amide]
< 0.01 µM | > 10 µM | > 10 µM | COc1ncc(-c2cnc3[nH]cc(C(=O)c4c(F)ccc(NS(=O)(=O)c5c(F)cccc5F)c4F)c3c2)cn1 [P-2043, N-{2,4-Difluoro-3-[5-(2-methoxy-pyrimidin-5-yl)-1H-pyrrolo[2,3-b]pyridine-3-carbonyl]-phenyl}-2,6-difluoro-benzenesulfonamide]
< 0.01 µM | > 10 µM | > 10 µM | CCCS(=O)(=O)Nc1ccc(F)c(C(=O)c2c[nH]c3ncc(-c4ccc(OCCN5CCCC5)nc4)cc23)c1F [P-2233, Propane-1-sulfonic acid (2,4-difluoro-3-{5-[6-(2-pyrrolidin-1-yl-ethoxy)-pyridin-3-yl]-1H-pyrrolo[2,3-b]pyridine-3-carbonyl}-phenyl)-amide]
< 0.01 µM | > 10 µM | 5 to 10 µM | C#Cc1cnc2[nH]cc(C(=O)c3c(F)ccc(NS(=O)(=O)CCC)c3F)c2c1 [P-2260, Propane-1-sulfonic acid [3-(5-ethynyl-1H-pyrrolo[2,3-b]pyridine-3-carbonyl)-2,4-difluoro-phenyl]-amide]
< 0.01 µM | > 10 µM | > 10 µM | COc1cnc2[nH]cc(C(=O)c3c(F)ccc(NS(=O)(=O)c4cc(F)ccc4F)c3F)c2c1 [P-2010, N-[2,4-Difluoro-3-(5-methoxy-1H-pyrrolo[2,3-b]pyridine-3-carbonyl)-phenyl]-2,5-difluoro-benzenesulfonamide]
< 0.1 µM | < 20 µM | > 10 µM | CCCS(=O)(=O)Nc1ccc(F)c(C(=O)c2c[nH]c3ncc(-c4ccc(S(=O)(=O)CC)cc4)cc23)c1F [P-2218, Propane-1-sulfonic acid {3-[5-(4-ethanesulfonyl-phenyl)-1H-pyrrolo[2,3-b]pyridine-3-carbonyl]-2,4-difluoro-phenyl}-amide]
< 0.01 µM | > 10 µM | > 10 µM | CCCS(=O)(=O)Nc1ccc(F)c(C(=O)c2c[nH]c3ncc(-c4cnc(N(C)C)nc4)cc23)c1F [P-2196, Propane-1-sulfonic acid {3-[5-(2-dimethylamino-pyrimidin-5-yl)-1H-pyrrolo[2,3-b]pyridine-3-carbonyl]-2,4-difluoro-phenyl}-amide]
< 0.01 µM | > 10 µM | > 10 µM | CCCS(=O)(=O)Nc1ccc(F)c(C(=O)c2c[nH]c3ncc(-c4ccc(OCCCN5CCCC5)nc4)cc23)c1F [P-2235, Propane-1-sulfonic acid (2,4-difluoro-3-{5-[6-(3-pyrrolidin-1-yl-propoxy)-pyridin-3-yl]-1H-pyrrolo[2,3-b]pyridine-3-carbonyl}-phenyl)-amide]

Structure (SMILES) | IC50 (c-Raf-1) | IC50 [1] | IC50 (CYP3A4(BQ))
CCCS(=O)(=O)Nc1ccc(F)c(C(=O)c2c[nH]c3ncc(-c4ccc(NS(C)(=O)=O)cc4)cc23)c1F [P-2165, Propane-1-sulfonic acid {2,4-difluoro-3-[5-(4-methanesulfonylamino-phenyl)-1H-pyrrolo[2,3-b]pyridine-3-carbonyl]-phenyl}-amide] | < 0.01 µM | < 10 µM | > 10 µM
